For two compounds, IC50 results are on record in BindingDB's records for doi:10.1016/j.chembiol.2014.09.011 (Astrazeneca R&D, 2014).

Common to all, as to test: AMPD Enzymatic Activity Assay
Conditions in all cases: pH 7.4

For assay [1], the target named is T1, AMP deaminase 1 (Homo sapiens, UniProt P23109).
T1 sequence (P23109 whole entry): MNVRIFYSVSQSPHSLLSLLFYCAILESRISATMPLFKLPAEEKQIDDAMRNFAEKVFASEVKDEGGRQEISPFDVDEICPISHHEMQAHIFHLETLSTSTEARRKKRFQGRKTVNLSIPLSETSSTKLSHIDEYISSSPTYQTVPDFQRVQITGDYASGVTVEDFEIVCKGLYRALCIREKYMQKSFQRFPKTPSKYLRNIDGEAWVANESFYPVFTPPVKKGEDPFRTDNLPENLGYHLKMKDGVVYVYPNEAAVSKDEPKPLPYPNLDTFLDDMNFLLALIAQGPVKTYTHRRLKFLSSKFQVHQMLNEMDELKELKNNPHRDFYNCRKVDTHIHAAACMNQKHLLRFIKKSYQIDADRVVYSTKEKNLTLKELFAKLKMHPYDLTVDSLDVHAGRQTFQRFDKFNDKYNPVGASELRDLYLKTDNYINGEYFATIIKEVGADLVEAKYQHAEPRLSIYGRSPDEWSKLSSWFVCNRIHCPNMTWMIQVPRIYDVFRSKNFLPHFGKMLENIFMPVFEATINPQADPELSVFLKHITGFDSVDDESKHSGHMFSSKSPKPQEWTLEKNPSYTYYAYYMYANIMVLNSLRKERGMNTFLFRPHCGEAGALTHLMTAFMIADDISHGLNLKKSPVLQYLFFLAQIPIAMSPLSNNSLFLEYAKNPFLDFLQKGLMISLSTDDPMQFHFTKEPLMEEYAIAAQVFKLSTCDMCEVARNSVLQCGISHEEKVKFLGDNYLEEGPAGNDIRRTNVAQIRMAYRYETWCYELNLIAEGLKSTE
Here is the method:
(§1) AMPD1 was added to buffer A (50 mM HEPES, 150 mM KCl, 5 mM MgCl2, and 0.5 mMglutathione [pH 7.4]) to a concentration of 10 nM. A substrate mix consistingof 2mMNADPH, 6mMa-ketoglutarate, 8mMAMP, and 15 U GDH was prepared in buffer A. Substrate mix ([…]) was added to the plate, followed by centrifugation and incubation for 1 hr. Detection was by absorbance at 340 nm following the conversion of NADPH to NADP+. Recombinant AMPD enzyme activity assays were performed in a 384-well format using the same conditions as described above, except the assay volume was […] and the AMP concentration for the AMPD2 assay was 8 mM. Different AMPD enzyme concentrations were used to have linear reactions: hAMPD1 (4 nM), hAMPD2 (38 nM), hAMPD3 (1 nM), rAMPD1 (116 nM), rAMPD2 (53 nM), rAMPD3 (31 nM), and mAMPD1 (816 nM).

Assay [2] concerns the target T2, AMP deaminase 1 (Mus musculus, UniProt Q3V1D3).
T2 sequence (Q3V1D3 whole entry): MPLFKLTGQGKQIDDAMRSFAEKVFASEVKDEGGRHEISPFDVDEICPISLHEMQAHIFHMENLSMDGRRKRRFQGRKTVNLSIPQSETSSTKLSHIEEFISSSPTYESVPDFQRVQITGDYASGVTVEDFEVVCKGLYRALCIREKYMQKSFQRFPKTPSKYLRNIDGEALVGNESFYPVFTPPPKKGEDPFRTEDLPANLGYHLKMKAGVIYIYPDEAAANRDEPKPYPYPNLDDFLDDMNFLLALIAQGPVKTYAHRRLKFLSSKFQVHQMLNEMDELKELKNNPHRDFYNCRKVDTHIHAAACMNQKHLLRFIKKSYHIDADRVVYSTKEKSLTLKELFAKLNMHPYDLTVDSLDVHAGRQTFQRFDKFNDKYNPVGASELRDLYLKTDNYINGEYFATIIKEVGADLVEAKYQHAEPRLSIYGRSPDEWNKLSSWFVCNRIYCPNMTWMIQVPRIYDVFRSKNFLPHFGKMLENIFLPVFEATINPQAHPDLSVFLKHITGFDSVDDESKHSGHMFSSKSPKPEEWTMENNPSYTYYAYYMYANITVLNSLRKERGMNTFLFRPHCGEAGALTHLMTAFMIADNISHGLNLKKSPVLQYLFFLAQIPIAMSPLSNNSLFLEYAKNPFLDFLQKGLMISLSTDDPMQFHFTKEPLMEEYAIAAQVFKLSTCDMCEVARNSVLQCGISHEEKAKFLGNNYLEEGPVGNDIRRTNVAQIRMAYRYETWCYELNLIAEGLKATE
Here is the method:
as §1

The target in assay [3] is T3, AMP deaminase 1 (Rattus norvegicus, UniProt P10759).
T3 sequence (P10759 whole entry): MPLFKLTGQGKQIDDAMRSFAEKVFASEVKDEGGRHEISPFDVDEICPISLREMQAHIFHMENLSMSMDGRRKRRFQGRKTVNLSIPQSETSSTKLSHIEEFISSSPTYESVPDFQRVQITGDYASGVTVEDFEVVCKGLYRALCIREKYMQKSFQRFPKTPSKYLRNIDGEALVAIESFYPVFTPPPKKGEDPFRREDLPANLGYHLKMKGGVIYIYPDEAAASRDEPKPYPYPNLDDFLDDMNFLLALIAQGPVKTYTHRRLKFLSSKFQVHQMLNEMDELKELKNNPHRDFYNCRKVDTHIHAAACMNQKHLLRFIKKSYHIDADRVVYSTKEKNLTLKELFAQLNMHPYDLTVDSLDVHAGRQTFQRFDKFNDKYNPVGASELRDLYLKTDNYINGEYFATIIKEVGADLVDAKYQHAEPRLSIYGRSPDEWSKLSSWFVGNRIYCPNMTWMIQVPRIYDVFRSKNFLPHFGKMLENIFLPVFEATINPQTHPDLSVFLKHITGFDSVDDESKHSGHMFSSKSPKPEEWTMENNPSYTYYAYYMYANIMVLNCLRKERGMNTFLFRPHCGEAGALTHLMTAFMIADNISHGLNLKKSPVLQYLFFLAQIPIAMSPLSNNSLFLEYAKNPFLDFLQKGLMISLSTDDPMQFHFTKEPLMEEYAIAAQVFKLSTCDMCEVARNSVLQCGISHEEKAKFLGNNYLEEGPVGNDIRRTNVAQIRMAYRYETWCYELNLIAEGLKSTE
Here is the method: as §1

Consider `C[C@H](NCc1ccc(-c2ccc(C(=O)O)cn2)cc1)c1cccc2ccncc12` [6-[4-({[(1S)-1-(isoquinolin-8-yl)ethyl]amino}methyl)phenyl]pyridine-3-carboxylic acid (Compound 3)], for which the IC50 on AMP deaminase 1 [1] is 38 nM; on AMP deaminase 1 [2], 24 nM; against AMP deaminase 1 [3], 27 nM.
In the same order, the values of `C[C@@H](NCc1ccc(-c2ccc(C(=O)O)cn2)cc1)c1cccc2ccncc12` [6-[4-({[(1R)-1-(isoquinolin-8-yl)ethyl]amino}methyl)phenyl]pyridine-3-carboxylic acid (Compound 2)] are 9200 nM, 4500 nM and 5800 nM.

The IC50 is the concentration at which inhibition is half-maximal. Read a low IC50 as inhibition by little substance.
